{"source": "ChEMBL document CHEMBL5352409", "about": "“Design, synthesis, and pharmacological evaluation of 2-(1-(1,3,4-thiadiazol-2-yl)piperidin-4-yl)ethan-1-ol analogs as novel glutaminase 1 inhibitors” (Eur J Med Chem, 2022)", "key": {"[1]": {"system": "A549", "experiment": "Induction of cell cycle arrest in human A549 cells assessed as accumulation of cells at G0/G1 phase at 50 nM incubated for 48 hrs by propidium iodide staining based flow cytometry analysis (Rvb=61.61%)", "assay_type": "functional"}, "[2]": {"system": "A549", "experiment": "Induction of cell cycle arrest in human A549 cells assessed as accumulation of cells at G0/G1 phase at 100 nM incubated for 48 hrs by propidium iodide staining based flow cytometry analysis (Rvb=61.61%)", "assay_type": "functional"}, "[3]": {"system": "A549", "experiment": "Induction of intracellular ROS production in human A549 cells by DCFH-DA staining based fluorescence microscopic analysis", "assay_type": "functional, cell-based", "details": "dose 1-10 µM"}, "[4]": {"system": "A549", "experiment": "Induction of cell cycle arrest in human A549 cells assessed as accumulation of cells at G2/M phase at 800 nM incubated for 48 hrs by propidium iodide staining based flow cytometry analysis (Rvb=23.88%)", "assay_type": "functional"}, "[5]": {"experiment": "Cmax in rat at 3 mg/kg, po", "assay_type": "ADME, organism-based", "set-up": "dose 3 mg/kg, route po", "details": "in vivo"}, "[6]": {"experiment": "Oral bioavailability in rat at 3 mg/kg", "assay_type": "ADME, organism-based", "details": "in vivo"}, "[7]": {"system": "HCT-116", "experiment": "Antitumor activity against human HCT-116 cells xenografted in mouse model assessed as tumor growth inhibition at 100 mg/kg once daily via oral gavage administered for 28 days relative to control", "assay_type": "functional", "set-up": "scale not given: the % may be the effect or the level left", "details": "time 28 day"}, "[8]": {"system": "A549", "experiment": "Induction of cell cycle arrest in human A549 cells assessed as accumulation of cells at G0/G1 phase at 800 nM incubated for 48 hrs by propidium iodide staining based flow cytometry analysis (Rvb=61.61%)", "assay_type": "functional"}, "[9]": {"system": "A549", "experiment": "Induction of cell cycle arrest in human A549 cells assessed as accumulation at G1 phase incubated for 48 hrs by propidium iodide staining based flow cytometry analysis", "assay_type": "functional", "details": "dose 50-800 nM"}, "[10]": {"system": "A549", "experiment": "Induction of apoptosis in human A549 cells assessed as late apoptotic cells at 10 uM incubated for 48 hrs by annexin V-FITC and propidium iodide based flow cytometry analysis (Rvb =9.696%)", "assay_type": "functional"}, "[11]": {"target": "T1, Glutaminase liver isoform, mitochondrial (Homo sapiens, UniProt Q9UI32)", "T1 sequence (Q9UI32 whole entry)": "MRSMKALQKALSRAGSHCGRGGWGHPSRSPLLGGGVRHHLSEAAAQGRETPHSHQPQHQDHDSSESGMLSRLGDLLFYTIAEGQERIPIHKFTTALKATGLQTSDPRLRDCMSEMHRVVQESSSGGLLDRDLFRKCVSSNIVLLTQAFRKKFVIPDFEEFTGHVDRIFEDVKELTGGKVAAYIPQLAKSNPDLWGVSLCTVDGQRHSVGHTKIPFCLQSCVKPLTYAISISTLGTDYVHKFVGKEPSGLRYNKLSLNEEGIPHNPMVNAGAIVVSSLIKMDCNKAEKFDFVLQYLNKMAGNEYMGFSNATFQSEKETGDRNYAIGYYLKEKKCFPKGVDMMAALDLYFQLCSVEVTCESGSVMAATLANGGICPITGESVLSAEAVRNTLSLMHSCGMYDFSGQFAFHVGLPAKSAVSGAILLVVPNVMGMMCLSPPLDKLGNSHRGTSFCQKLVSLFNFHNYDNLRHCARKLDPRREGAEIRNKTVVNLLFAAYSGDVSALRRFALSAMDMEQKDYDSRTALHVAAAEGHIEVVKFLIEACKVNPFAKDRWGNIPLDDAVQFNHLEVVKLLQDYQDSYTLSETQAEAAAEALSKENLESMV", "experiment": "Inhibition of GLS2 (unknown origin)"}, "[12]": {"system": "A549", "experiment": "Induction of apoptosis in human A549 cells assessed as late apoptotic cells at 1 uM incubated for 48 hrs by annexin V-FITC and propidium iodide based flow cytometry analysis (Rvb =9.696%)", "assay_type": "functional"}}}
{"smiles": "CCCCCCN1CCC(CNC(=O)c2cccc(COCCC3CCN(c4nnc(NC(=O)Cc5ccccc5)s4)CC3)c2)CC1", "values": [{"measurement": "Activity", "setting": "[1]", "value": 62.73, "unit": "%"}, {"measurement": "Activity", "setting": "[2]", "value": 64.94, "unit": "%"}, {"measurement": "Activity", "setting": "[3]", "value": "Dose-Dependent Effect"}, {"measurement": "Activity", "setting": "[4]", "value": 19.67, "unit": "%"}, {"measurement": "Cmax", "setting": "[5]", "value": 41.3, "unit": "ng/mL"}, {"measurement": "F", "setting": "[6]", "value": 12.4, "unit": "%"}, {"measurement": "Activity", "setting": "[7]", "value": 42, "unit": "%"}, {"measurement": "Activity", "setting": "[8]", "value": 68.55, "unit": "%"}, {"measurement": "Activity", "setting": "[9]", "value": "Dose-Dependent Effect"}, {"measurement": "Activity", "setting": "[10]", "value": 68.08, "unit": "%"}, {"measurement": "IC50", "setting": "[11]", "value": "> 15", "unit": "µM"}, {"measurement": "Activity", "setting": "[12]", "value": 7.018, "unit": "%"}]}
